This passage reports EC50 results from US9988379B2, “GPR40 receptor agonist, methods of preparing the same, and pharmaceutical compositions containing the same as an active agent” (LG CHEM, LTD., priority 2012, dated 2018).

This test has as its target T1, human GPR40 (Homo sapiens, UniProt O14842).
T1 construct: expressed in transfected cells; host or cells: CHO-K1
The test is described as follows: Induction of Ca2+ (calcium flux assay) using human GPR40 expression cell line. Format: cell-based. The conditions noted are these: read-out: EC0.5. The gist of the method: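 Read-out is intracellular Ca2+ flux on FlexStation after test compounds (DMSO stocks diluted 200-fold in assay buffer) were added to dye-loaded human GPR40/CHO-K1 cells. Cells had been cultured 24 h, then incubated 1 h at 37° C with Calcium 5 dye, HBSS-HEPES pH 7.4; EC0.5 from concentration plot.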
(In general: Calcium assays in cells follow changes in intracellular calcium, usually with a dye or a luminescent sensor.)

T1 sequence (O14842 whole entry): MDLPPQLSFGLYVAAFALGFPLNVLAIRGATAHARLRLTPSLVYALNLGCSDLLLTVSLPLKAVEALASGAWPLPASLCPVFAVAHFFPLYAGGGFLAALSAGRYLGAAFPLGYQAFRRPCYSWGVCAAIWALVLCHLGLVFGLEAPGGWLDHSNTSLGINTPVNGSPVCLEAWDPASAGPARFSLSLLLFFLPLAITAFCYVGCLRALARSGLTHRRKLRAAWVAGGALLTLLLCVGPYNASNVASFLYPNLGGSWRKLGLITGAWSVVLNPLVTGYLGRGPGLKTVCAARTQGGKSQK

In the case of `CC#C[C@@H](CC(=O)O)c1ccc(OCc2ccc3c(C)nn(CC(C)C)c3c2C)cc1` [Example 212, (S)-3-[4-(1-isobutyl-3,7-dimethyl-1H-indazol-6-ylmethoxy)-phenyl]-hex-4-ynoic acid], the EC50 is 2 nM.
Turning to `CC#C[C@@H](CC(=O)O)c1ccc(OCc2ccc(C)c3c2c(F)nn3CC(C)C)cc1` [Example 213, (S)-3-[4-(3-fluoro-1-isobutyl-7-methyl-1H-indazol-4-ylmethoxy)-phenyl]-hex-4-ynoic acid], the EC50 fell in the range of 1 to 50 nM.
Turning to `CC#C[C@@H](CC(=O)O)c1ccc(OCc2ccc3c(F)nn(CC)c3c2C)cc1` [Example 214, (S)-3-[4-(1-ethyl-3-fluoro-7-methyl-1H-indazol-6-ylmethoxy)-phenyl]-hex-4-ynoic acid], the EC50 is 2 nM.
Regarding `CC#C[C@@H](CC(=O)O)c1ccc(OCc2ccc3c(CN4CCOCC4)nn(CC(C)C)c3c2C)cc1` [Example 215, (S)-3-[4-(1-isobutyl-7-methyl-3-morpholin-4-ylmethyl-1H-indazol-6-ylmethoxy)-phenyl]-hex-4-ynoic acid], the EC50 amounted to 10 nM.
Consider `CC#C[C@@H](CC(=O)O)c1ccc(OCc2ccc3c(CN4CCOCC4)nn(CC(C)C)c3c2Cl)cc1` [Example 216, (S)-3-[4-(7-chloro-1-isobutyl-3-morpholin-4-ylmethyl-1H-indazol-6-ylmethoxy)-phenyl]-hex-4-ynoic acid], for which the EC50 amounted to 6 nM.
Regarding `CC#C[C@@H](CC(=O)O)c1ccc(OCc2ccc3c(CN4CCCC4)nn(CC(C)C)c3c2C)cc1` [Example 217, (S)-3-[4-(1-isobutyl-7-methyl-3-pyrrolidin-1-ylmethyl-1H-indazol-6-ylmethoxy)-phenyl]-hex-4-ynoic acid], the EC50 is 20 nM.
Turning to `CC#C[C@@H](CC(=O)O)c1ccc(OCc2ccc3c(CN4CCCCC4)nn(CC(C)C)c3c2C)cc1` [Example 218, (S)-3-[4-(1-isobutyl-7-methyl-3-piperidin-1-ylmethyl-1H-indazol-6-ylmethoxy)-phenyl]-hex-4-ynoic acid], the EC50 is 14 nM.
Consider `CC#C[C@@H](CC(=O)O)c1ccc(OCc2ccc3c(CN4CCOCC4)nn(CC(C)C)c3c2)cc1` [Example 219, (S)-3-[4-(1-isobutyl-3-morpholin-4-ylmethyl-1H-indazol-6-ylmethoxy)-phenyl]-hex-4-ynoic acid], for which the EC50 worked out at 23 nM.
As to `CC#C[C@@H](CC(=O)O)c1ccc(OCc2ccc3cnn(C(C)C)c3c2C)cc1` [Example 220, (S)-3-[4-(1-isopropyl-7-methyl-1H-indazol-6-ylmethoxy)-phenyl]-hex-4-ynoic acid], the EC50 came to 3 nM.
The value for `CC#C[C@@H](CC(=O)O)c1ccc(OCc2ccc3cnn(CCC)c3c2C)cc1` [Example 221, (S)-3-[4-(7-methyl-1-propyl-1H-indazol-6-ylmethoxy)-phenyl]-hex-4-ynoic acid] was 5 nM; that for `CC#C[C@@H](CC(=O)O)c1ccc(OCc2ccc3c(CF)nn(CC(C)C)c3c2C)cc1` [Example 222, (S)-3-[4-(3-fluoromethyl-1-isobutyl-7-methyl-1H-indazol-6-ylmethoxy)-phenyl]-hex-4-ynoic acid] was 5 nM.
As to `CC#C[C@@H](CC(=O)O)c1ccc(OCc2ccc(C)c3c2cnn3C(C)C)cc1` [Example 223, (S)-3-[4-(1-isopropyl-7-methyl-1H-indazol-4-ylmethoxy)-phenyl]-hex-4-ynoic acid], the EC50 was 11 nM.
For the compound `CC#C[C@@H](CC(=O)O)c1ccc(OCc2ccnc3c2ccn3C(C)C)cc1` [Example 224, (S)-3-[4-(1-isopropyl-1H-pyrrolo[2,3-b]pyridin-4-ylmethoxy)-phenyl]-hex-4-ynoic acid], the EC50 came to 27 nM.
Regarding `CC#C[C@@H](CC(=O)O)c1ccc(OCc2ccnc3c2c(F)cn3CC(C)C)cc1` [Example 225, (S)-3-[4-(3-fluoro-1-isobutyl-1H-pyrrolo[2,3-b]pyridin-4-ylmethoxy)-phenyl]-hex-4-ynoic acid], the EC50 was determined as 13 nM.
Take `CC#C[C@@H](CC(=O)O)c1ccc(OCc2ccc3cnn(Cc4cccnc4)c3c2C)cc1` [Example 226, (S)-3-[4-(7-methyl-1-pyridin-3-ylmethyl-1H-indazol-6-ylmethoxy)-phenyl]-hex-4-ynoic acid]: the EC50 is 9 nM.
Take `CC#C[C@@H](CC(=O)O)c1ccc(OCc2ccc3c(CN4CCCC(F)(F)C4)nn(CC(C)C)c3c2C)cc1` [Example 227, (S)-3-{4-[3-(3,3-difluoro-piperidin-1-ylmethyl)-1-isobutyl-7-methyl-1H-indazol-6-ylmethoxy]-phenyl}-hex-4-ynoic acid]: the EC50 amounted to 5 nM.
The value for `CC#C[C@@H](CC(=O)O)c1ccc(OCc2ccc3c(Cn4cccn4)nn(CC(C)C)c3c2C)cc1` [Example 228, (S)-3-[4-(1-isobutyl-7-methyl-3-pyrazol-1-ylmethyl-1H-indazol-6-ylmethoxy)-phenyl]-hex-4-ynoic acid] was 1 to 50 nM.
In the case of `CC#C[C@@H](CC(=O)O)c1ccc(OCc2ccc3c(CN4CC[C@H](F)C4)nn(CC(C)C)c3c2C)cc1` [Example 229, (S)-3-{4-[3-((S)-3-fluoro-pyrrolidin-1-ylmethyl)-1-isobutyl-7-methyl-1H-indazol-6-ylmethoxy]-phenyl}-hex-4-ynoic acid], the EC50 is 35 nM.
In the case of `CC#C[C@@H](CC(=O)O)c1ccc(OCc2ccc3c(CN4CCC(F)(F)C4)nn(CC(C)C)c3c2C)cc1` [Example 230, (S)-3-{4-[3-(3,3-difluoro-pyrrolidin-1-ylmethyl)-1-isobutyl-7-methyl-1H-indazol-6-ylmethoxy]-phenyl}-hex-4-ynoic acid], the EC50 fell in the range of 1 to 50 nM.
The value for `CC#C[C@@H](CC(=O)O)c1ccc(OCc2ccc3c(CN4CCC(F)(F)C4)cn(CC(C)C)c3n2)cc1` [Example 231, (S)-3-{4-[3-(3,3-difluoro-pyrrolidin-1-ylmethyl)-1-isobutyl-1H-pyrrolo[2,3-b]pyridin-6-ylmethoxy]-phenyl}-hex-4-ynoic acid] was 1 to 50 nM; that for `CC#C[C@@H](CC(=O)O)c1ccc(OCc2ccc3c(CN4CCCC(F)(F)C4)cn(CC(C)C)c3n2)cc1` [Example 232, (S)-3-{4-[3-(3,3-difluoro-piperidin-1-ylmethyl)-1-isobutyl-1H-pyrrolo[2,3-b]pyridin-6-ylmethoxy]-phenyl}-hex-4-ynoic acid] was 12 nM.
